# Target: T1, epithelial sodium channel (ENaC) (Homo sapiens, UniProt P37088+P51168+P51170)
# T1 construct: host or cells: primary Human Bronchial Epithelial cells (HBECs), air-liquid interface culture
# T1 sequence (P37088 1-669): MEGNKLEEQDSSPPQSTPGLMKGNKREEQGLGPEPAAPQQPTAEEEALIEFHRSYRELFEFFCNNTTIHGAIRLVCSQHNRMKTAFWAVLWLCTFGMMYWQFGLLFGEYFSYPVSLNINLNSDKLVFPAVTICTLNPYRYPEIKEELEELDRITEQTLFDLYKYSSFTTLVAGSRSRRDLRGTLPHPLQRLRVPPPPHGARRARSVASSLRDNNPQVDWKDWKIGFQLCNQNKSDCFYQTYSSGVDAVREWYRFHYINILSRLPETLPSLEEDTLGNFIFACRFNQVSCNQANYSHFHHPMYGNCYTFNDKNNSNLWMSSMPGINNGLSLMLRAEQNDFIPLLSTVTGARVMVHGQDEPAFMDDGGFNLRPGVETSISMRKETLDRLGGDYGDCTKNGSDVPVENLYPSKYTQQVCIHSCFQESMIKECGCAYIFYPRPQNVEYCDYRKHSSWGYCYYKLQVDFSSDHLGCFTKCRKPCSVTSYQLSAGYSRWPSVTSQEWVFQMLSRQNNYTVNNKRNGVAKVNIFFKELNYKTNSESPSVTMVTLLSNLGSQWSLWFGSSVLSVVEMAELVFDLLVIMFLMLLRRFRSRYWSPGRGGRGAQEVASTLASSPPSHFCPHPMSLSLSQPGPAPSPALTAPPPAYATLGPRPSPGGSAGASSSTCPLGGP
# T1 sequence (P51168 1-640): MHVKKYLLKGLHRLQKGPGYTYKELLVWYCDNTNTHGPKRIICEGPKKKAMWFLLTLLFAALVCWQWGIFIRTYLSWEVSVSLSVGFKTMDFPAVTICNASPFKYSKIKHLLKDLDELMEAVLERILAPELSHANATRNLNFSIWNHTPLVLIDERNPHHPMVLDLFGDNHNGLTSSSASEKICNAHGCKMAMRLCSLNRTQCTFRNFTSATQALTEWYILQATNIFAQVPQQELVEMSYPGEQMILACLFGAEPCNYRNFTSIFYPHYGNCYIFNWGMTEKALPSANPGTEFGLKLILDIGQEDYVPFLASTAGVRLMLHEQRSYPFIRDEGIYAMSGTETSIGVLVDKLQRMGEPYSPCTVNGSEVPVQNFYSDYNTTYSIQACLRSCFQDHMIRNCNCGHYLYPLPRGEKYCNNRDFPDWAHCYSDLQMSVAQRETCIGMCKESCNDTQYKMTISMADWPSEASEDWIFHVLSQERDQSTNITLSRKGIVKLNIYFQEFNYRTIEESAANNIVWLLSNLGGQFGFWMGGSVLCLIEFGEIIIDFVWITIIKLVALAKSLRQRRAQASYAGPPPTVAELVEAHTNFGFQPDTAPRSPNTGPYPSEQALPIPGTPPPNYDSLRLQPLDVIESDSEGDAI
# T1 sequence (P51170 1-649): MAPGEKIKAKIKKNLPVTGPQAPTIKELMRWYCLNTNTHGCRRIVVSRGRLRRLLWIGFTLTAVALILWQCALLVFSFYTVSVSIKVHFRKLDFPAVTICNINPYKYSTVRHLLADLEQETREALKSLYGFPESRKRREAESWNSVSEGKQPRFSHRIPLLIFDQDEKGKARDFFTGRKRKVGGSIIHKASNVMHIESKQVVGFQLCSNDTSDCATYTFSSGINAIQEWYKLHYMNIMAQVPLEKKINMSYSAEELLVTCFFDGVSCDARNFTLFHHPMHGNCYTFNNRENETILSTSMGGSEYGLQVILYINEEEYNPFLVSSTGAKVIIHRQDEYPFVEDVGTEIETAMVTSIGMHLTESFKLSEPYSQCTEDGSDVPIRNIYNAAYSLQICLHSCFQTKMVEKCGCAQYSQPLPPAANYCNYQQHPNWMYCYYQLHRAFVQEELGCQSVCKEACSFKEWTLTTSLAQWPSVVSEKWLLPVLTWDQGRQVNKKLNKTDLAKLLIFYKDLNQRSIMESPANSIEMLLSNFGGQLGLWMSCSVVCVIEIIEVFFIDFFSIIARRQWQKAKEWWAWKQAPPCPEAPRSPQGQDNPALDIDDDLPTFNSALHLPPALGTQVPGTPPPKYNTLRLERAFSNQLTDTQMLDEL
# Assay: Short circuit current (ISC) measurements in Human Bronchial Epithelial cells, inhibition of amiloride-sensitive ISC
# Assay type: cell-based
# Settings: inhibition of the amiloride-sensitive ISC; Human Bronchial Epithelial cells (HBECs) at air-liquid interface; compound added to apical chamber; read-out: IC50
# Outline: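 Well-differentiated air-liquid interface HBECs (days 7–21) in Ussing chambers, Ringer pH 7.4, 37° C, voltage clamped at 0 mV. Cumulative 3-fold apical compound additions, then 10 μM amiloride to define total amiloride-sensitive ISC. IC50 from mean % inhibition, typically duplicate inserts.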
row,IC50,SMILES
1,9.5 nM,"CC(C)OCCCNS(=O)(=O)c1cccc(C(=O)N2CCC3(CC2)CN/C(=N\C(=O)c2nc(Cl)c(N)nc2N)N3)c1 [Example 41, 3,5-Diamino-6-chloro-pyrazine-2-carboxylic acid [8-[3-(3-isopropoxy-propylsulfamoyl)-benzoyl]-1,3,8-triaza-spiro[4.5]dec-(2E)-ylidene]-amide]"
2,42 nM,"CC(C)(C)OC(=O)COc1ccc(CCC(=O)N2CCC3(CC2)CN/C(=N\C(=O)c2nc(Cl)c(N)nc2N)N3)cc1 [Example 71, [4-(3-{2-[(E)-3,5-Diamino-6-chloro-pyrazine-2-carbonylimino]-1,3,8-triaza-spiro[4.5]dec-8-yl}-3-oxo-propyl)-phenoxy]-acetic acid tert-butyl]"
3,2 nM,"Nc1nc(N)c(C(=O)/N=C2\NCC3(CCN(C(=O)c4cccc(S(=O)(=O)N5CCC(S(=O)(=O)c6ccccc6)C5)c4)CC3)N2)nc1Cl (stereo not shown) [Example 141, 3,5-Diamino-6-chloro-pyrazine-2-carboxylic acid [8-[3-(3-benzenesulfonyl-pyrrolidine-1-sulfonyl)-benzoyl]-1,3,8-triaza-spiro[4.5]dec-(2E)-ylidene]-amide]"
4,25.5 nM,"CC(C)NC(=O)Nc1ccc(C(=O)N2CCC3(CC2)CN/C(=N\C(=O)c2nc(Cl)c(N)nc2N)N3)cc1 [Example 64, 3,5-Diamino-6-chloro-pyrazine-2-carboxylic acid [8-[4-(3-isopropyl-ureido)-benzoyl]-1,3,8-triaza-spiro[4.5]dec-(2E)-ylidene]-amide]"

# From US8697687B2, “Treating diseases mediated by blockade of the epithelial sodium channel with pyrazine-2-carboxamide derivatives” (Novartis AG, priority 2007, dated 2014)
